# Measurements: patent publication US20250320496A1, “MODULATION OF ABCB11 GENE TRANSCRIPTION USING ANTISENSE OLIGONUCLEOTIDES TARGETING REGULATORY RNAS” (CAMP4 Therapeutics Corporation, priority 2022, published 2025)
# Strand notation (5' to 3'): a small letter for the sugar, then the base; units joined by * are phosphorothioate-linked, units joined directly phosphodiester-linked; [ ] holds rarer units or linkages, { } end groups; capitals alone tell only the bases. e = 2'-O-(2-methoxyethyl) (MOE); l = locked nucleic acid (LNA); [5mC] = 5-methylcytosine; d = 2'-deoxy (DNA)
# Test system: human ABCB11 mRNA
# Assay: ASO treatment of primary human hepatocytes (PHH), ABCB11 mRNA by RT-qPCR normalized to B2M
# Assay type: cell-based
# Conditions: primary human hepatocytes; for ABCB11 mRNA FC (5 μM ASO vs. UNT): normalized to untreated PHHs (UNT); for ABCB11 FC mRNA (5 μM ASO vs. untreated): 5 μM ASO with PO-modifications, normalized to untreated hepatocytes
# Experimental: Primary human hepatocytes (PHH) were thawed using Lonza Human Cryopreserved Hepatocyte Thawing Medium and plated in 96-well collagen-coated plates (5.5-6.0×10^4 cells per well). Four hours later, the media was replaced with sterile-filtered QualGro™ Hepatocyte Culture Medium (BioIVT) containing antibiotic supplement, 0.3 mg/ml Matrigel® matrix (Corning®), and ASO at the desired concentration (e.g., 1.25 μM, 2.5 μM, 5 μM, or 10 μM). After 72 hrs., cells were harvested by aspirating media, washing once with phosphate-buffered saline (PBS), and lysed with 150 μl of Buffer RLT lysis buffer (Qiagen®). Plates were frozen at-80° C. during cell lysis. After thawing, total RNA was isolated using the Qiagen RNEasy kit as instructed by manufacturer. cDNA (random-primed) was synthesized from 10 μl of RNA using the LifeTech High Capacity cDNA Reverse Transcription kit. 2 μl of cDNA was used for reverse transcription-quantitative PCR (RT-qPCR) analyses using standard Taqman” reagents from Applied Biosystems™ to measure ABCB11 and CYP7A1 gene expression. Gene expression data was normalized to the housekeeper gene, beta-2-microglobulin (B2M).
# To assess the ability of ASOs targeting ABCB11 regRNAs to modulate the expression of human ABCB11, 195 ASOs targeting the human ABCB11 regRNAs were synthesized. These initial ASOs were screened in PHHs at 5 μM to determine their efficacy in increasing human ABCB11 mRNA using quantitative PCR. This initial screen identified 10 ASOs that induced increased expression of ABCB11 mRNA by more than 1.5-fold (as compared to untreated PHHs).
Substance,ABCB11 mRNA FC (5 μM ASO vs. UNT) [fold change],ABCB11 FC mRNA (5 μM ASO vs. untreated) [fold change]
CO-7015 (antisense eA*eG*eT*eG*eA*dG*dG*d[5mC]*eA*dT*d[5mC]*dA*dG*eG*dT*dA*dA*eG*eT*eT*e[5mC]*e[5mC]),1.257,
CO-7166: derivative ASO with additional chemical modifications based on parent ASO CO-4535 (antisense eG*eT*eT*eA*eT*eT*eA*eA*eT*eT*e[5mC]*eT*eA*e[5mC]*eA*eG*eA*eG*eG*eG),1.517,
CO-4524 (antisense e[5mC]*eA*eG*eA*eG*eA*eA*eA*e[5mC]*e[5mC]*eT*eA*eA*eA*eA*eT*eT*eG*eA*eG),1.243,
CO-7027 (antisense e[5mC]*eG*eA*e[5mC]*eA*eG*eT*eG*eA*eG*e[5mC]*eT*eT*eA*eT*e[5mC]*eT*eG*eG*eA),1.304,
CO-11215 (antisense eG*eT*lG*eGlA*eG*l[5mC]*eAlA*eA*l[5mC]*eTlA*eG*lG*e[5mC]lA*e[5mC]*eT*eG),,2.68
CO-11204 (antisense eT*eG*eT*eT*eTeT*eG*e[5mC]*eTeT*eG*eG*eTe[5mC]*eA*eA*eGeA*eG*eG),,1.15
CO-7151: derivative ASO with additional chemical modifications based on parent ASO CO-4517 (antisense e[5mC]*e[5mC]*eT*eT*eA*lG*dG*dA*lG*dG*dA*dT*dT*lA*dT*dT*lT*eA*eA*e[5mC]*e[5mC]*eT),1.498,
CO-7059 (eT*e[5mC]*eT*lG*eG*dA*dA*lA*dA*dT*dA*lA*dT*dG*d[5mC]*l[5mC]*eT*eT*eT*e[5mC]; antisense),1.023,
CO-7022 (antisense eT*e[5mC]*eT*eG*eG*dA*dA*dA*dA*dT*dA*dA*dT*dG*d[5mC]*e[5mC]*eT*eT*eT*e[5mC]),1.224,
CO-7180: derivative ASO with additional chemical modifications based on parent ASO CO-4529 (antisense eG*eT*lG*eG*eA*lG*e[5mC]*eA*lA*eA*e[5mC]*lT*eA*eG*lG*e[5mC]*eA*l[5mC]*eT*eG),2.04,
CO-7061 (eT*e[5mC]*eT*lG*eG*lA*eA*lA*eA*lT*eA*lA*eT*lG*e[5mC]*l[5mC]*eT*lT*eT*e[5mC]; antisense),1.261,
CO-4036 (antisense eG*e[5mC]*eA*eA*eA*eT*eA*eG*eA*eT*eA*eA*eT*eG*eT*eT*e[5mC]*eT*eT*eG),1.235,
CO-7192 (eT*eG*eG*l[5mC]*eG*eT*eT*lA*eT*eT*eA*lA*eT*eT*e[5mC]*lT*eA*e[5mC]*eA*eG; antisense),1.591,
CO-4521 (antisense eG*e[5mC]*eA*eT*eT*eT*e[5mC]*eA*eG*eA*eG*e[5mC]*eA*e[5mC]*eA*eG*eA*eG*eT*eG),1.092,
CO-4528 (antisense e[5mC]*eT*eG*eG*eG*eA*eT*eA*eG*eG*eG*eT*eG*eG*eA*eT*e[5mC]*eT*eA*e[5mC]),0.883,
CO-4052 (antisense e[5mC]*e[5mC]*eA*eG*eG*eG*eT*eG*e[5mC]*eA*eA*eG*eA*eG*eT*eT*eG*eT*e[5mC]*eT),1.054,
CO-7101 (eA*eT*e[5mC]*eT*eG*lG*dA*dA*lA*dA*dT*dA*dA*lT*dG*d[5mC]*l[5mC]*eT*eT*eT*e[5mC]*eT; antisense),1.165,
CO-4035 (antisense eG*eT*eT*e[5mC]*eA*eG*eT*eG*e[5mC]*eT*eT*eT*eA*eG*eA*eA*eT*eG*eA*eT),0.926,
CO-7163 (antisense e[5mC]*eA*eG*eA*e[5mC]*eA*eT*eG*eA*eT*eG*eT*eG*eG*eA*eG*eG*eT*eG*eG),1.308,
CO-3989 (antisense eA*eA*eG*eA*eT*eG*e[5mC]*eT*eA*e[5mC]*eA*eA*eT*eT*eG*e[5mC]*e[5mC]*eA*eT*eA),1.19,
CO-7068 (e[5mC]*eA*eT*eT*eT*lA*dG*dA*lG*dA*d[5mC]*lA*dA*dA*lG*eA*eA*eT*e[5mC]*eG; antisense),1.077,

Substance,ABCB11 mRNA FC (5 μM ASO vs. UNT) [fold change],ABCB11 FC mRNA (5 μM ASO vs. untreated) [fold change]
CO-7045 (antisense eT*eG*eT*eT*eT*dT*dG*d[5mC]*dT*dT*dG*dG*dT*d[5mC]*dA*eA*eG*eA*eG*eG),1.112,
CO-7155 (antisense eA*e[5mC]*e[5mC]*eT*eT*dA*dG*lG*dA*dG*lG*dA*dT*lT*dA*dT*lT*dT*dA*eA*e[5mC]*e[5mC]*eT*e[5mC]),1.253,
CO-12750 (antisense eG*eT*eG*eAeG*eG*e[5mC]*eAeT*e[5mC]*eA*eGeG*eT*eA*eAeG*eT*eT*e[5mC]),,1.39
CO-11211 (antisense eG*eT*lG*eGlAeGl[5mC]*eA*lA*eA*l[5mC]*eT*lA*eGlGe[5mC]lA*e[5mC]*eT*eG),,2.80
CO-12749 (antisense eG*eT*eGeA*eG*eG*e[5mC]*eAeT*e[5mC]*eA*eG*eGeT*eA*eA*eG*eTeT*e[5mC]),,0.95
CO-4028 (antisense eT*eT*eA*eA*e[5mC]*eT*e[5mC]*eT*eT*eA*e[5mC]*eT*eT*eT*eG*eT*eG*eG*eA*eG),1.418,
"CO-4517: parent ASO targeting a human ABCB11 regRNA, chemically modified to CO-7141 etc. (antisense e[5mC]*eT*eT*eA*eG*eG*eA*eG*eG*eA*eT*eT*eA*eT*eT*eT*eA*eA*e[5mC]*e[5mC])",0.914,
CO-3997 (antisense eG*e[5mC]*eT*eG*eT*eG*e[5mC]*eT*e[5mC]*eT*eG*eT*eA*eA*e[5mC]*eA*e[5mC]*eT*eG*eT),1.501,
CO-7184: derivative ASO with additional chemical modifications based on parent ASO CO-4529 (antisense eG*eT*eG*eG*lA*eG*e[5mC]*eA*eA*lA*e[5mC]*eT*eA*eG*lG*e[5mC]*eA*e[5mC]*eT*eG),1.582,
CO-11207 (antisense eT*eG*eTeT*eT*eTeG*e[5mC]*eTeT*eG*eGeT*e[5mC]*eAeA*eG*eAeG*eG),,0.91
CO-7009 (antisense eT*eG*eT*eG*eG*eA*eT*dG*dT*dA*dGdA*dT*dG*dA*dA*dT*eG*eG*e[5mC]*eA*eA*eG*eG),1.289,
CO-6974 (antisense eT*eG*eG*eG*eA*eA*eG*eT*eT*eT*eA*eA*eA*eA*eA*eA*eT*eG*eG*eG),1.394,
CO-7182: derivative ASO with additional chemical modifications based on parent ASO CO-4529 (antisense eG*eT*eG*lG*eA*eG*e[5mC]*lA*eA*eA*e[5mC]*lT*eA*eG*eG*l[5mC]*eA*e[5mC]*eT*eG),1.572,
CO-4011 (antisense eT*e[5mC]*e[5mC]*eA*eA*e[5mC]*eA*e[5mC]*e[5mC]*eG*eT*eA*e[5mC]*eT*e[5mC]*eA*eT*eT*eT*e[5mC]),1.184,
CO-7170 (antisense eT*e[5mC]*eT*eT*eA*eT*eT*eT*eG*eG*e[5mC]*eG*eT*eT*eA*eT*eT*eA*eA*eT),1.477,
CO-7201 (eA*eG*eG*eT*eG*dG*dA*eG*d[5mC]*dA*eA*dA*d[5mC]*eT*dA*dG*eG*d[5mC]*dA*e[5mC]*eT*eG*eA*eG; antisense),1.253,
CO-4041 (antisense eT*e[5mC]*e[5mC]*eA*eA*eG*eG*e[5mC]*e[5mC]*eT*eG*eT*eT*eG*eA*e[5mC]*eA*e[5mC]*e[5mC]*e[5mC]),0.963,
CO-11221 (antisense eG*eTlG*eGlA*eGl[5mC]*eAlA*eAl[5mC]*eTlA*eGlG*e[5mC]lA*e[5mC]eT*eG),,2.00
CO-7167 (antisense eG*eG*e[5mC]*eG*eT*eT*eA*eT*eT*eA*eA*eT*eT*e[5mC]*eT*eA*e[5mC]*eA*eG*eA),1.403,
CO-7150: derivative ASO with additional chemical modifications based on parent ASO CO-4517 (antisense e[5mC]*e[5mC]*eT*eT*eA*dG*dG*dA*eG*dG*dA*dT*dT*eA*dT*dT*dT*eA*eA*e[5mC]*e[5mC]*eT),1.505,
CO-4523 (antisense eT*e[5mC]*eT*eG*e[5mC]*eA*eA*eA*eT*eT*eA*eA*eG*eA*eA*eG*e[5mC]*eA*e[5mC]eT),1.037,
